Laboratory results taken from patent publication US10548911B2, “Small molecule anti-scarring agents” (UNIVERSITY OF ROCHESTER, priority 2014, dated 2020).
Entries after “also recorded” stand apart in the source; their conditions may differ.

Key:
[1] = tested on: phospho-Smad2; test: Western blot of phospho-Smad2/3 in TGFβ-treated human orbital fibroblasts; assay type: cell-based
Method: To further characterize the molecular mechanisms whereby salinomycin (and other polyether antibiotics) blocks TGFβ induced myofibroblast formation, activation kinetics were analyzed for some of the key mediators of TGFβ signaling (Weiss et al., “The TGFbeta superfamily signaling pathway,” Wiley Interdiscip. Rev. Dev. Biol. 2:47-63 (2013), which is hereby incorporated by reference in its entirety). Since salinomycin was first identified as a putative anti-scarring molecule by its ability to block TGFβ-induced Smad activity, the levels of phospho-Smad2 were analyzed by Western blot in cells treated with TGFβ or TGFβ plus salinomycin. […] The experiment was repeated, with samples being incubated for extended periods of time including 5, 24, 48 and 72 h hours (FIG. 5A, top panel).

[2] = tested on: TGFβ-induced SBE-luciferase activity; test: Secondary dual luciferase screen (SBE-luciferase normalized to constitutive Renilla luciferase); assay type: cell-based, human; details: for inhibition of luciferase expression, dose responsiveness: secondary dual luciferase screen, several doses (low micromolar)
Method: FIG. 1A is a diagram of Smad-dependent reporter construct. Four tandem Smad binding elements (SBE) were inserted upstream of the minimal Thymidine Kinase (TK) promoter. Downstream of the promoter is a destabilized version of the firefly luciferase gene (luc2P) present in the pLuc2P-Hygro plasmid which also harbors the hygromycin resistance gene. The plasmid was introduced into HEK293FT cell line and individual colonies were selected with hygromycin (200 ug/ml) to develop a Smad/TGFβ dependent-luciferase reporter cell line. FIG. 1B is a graph illustrating the response of the reporter cell line to 1 ng/ml treatment of TGFβ for 20 hours, which results in an approximately 20-fold increase of luciferase activity.
They are: Benzbromarone (“BZB”), Bithionate sodium (“BTS”), Piplartine (piperlongumine) (“PPT”), Amsacrine (“ASC”), and Alexidine (“AXD”). A secondary luciferase screening assay was performed to determine specificity and dose responsiveness of these compounds in comparison to salinomycin (“SNC”). The secondary screen utilizes dual luciferase technology that includes the above mentioned SBE-luciferase in addition to a Renilla luciferase that is under control of the constitutive SV40 promoter. Therefore the SBE-luciferase activity can be normalized to the Renilla luciferase activity to control for toxicity and non-specific effects. The secondary screen can thus be used to remove small molecules that display overt toxicity and/or non-specific effects on the primary assay.

[3] = tested on: TGFβ induced Smad-luc activity; test: Smad-luc reporter in human orbital fibroblasts electroporated with control or MKK6(glu) plasmid; assay type: cell-based; details: 250 nM, 24 hours
Method: Plasmid DNA was introduced into human fibroblasts by electroporation. Plasmids were electroporated with an Amaxa nucleofector (program U-025) into 1×10^6 cells. The pcDNA3-flag MKK6(glu) plasmid was obtained from Addgene (plasmid 13518, from Roger Davis' lab). After transfection cells were cultured for 12-24 hours and culture medium was subsequently changed to treatment conditions.
To further test if salinomycin targets the p38 pathway to block myofibroblast formation, a plasmid encoding a mutant MKK6 (pcDNA3-flag MKK6(glu)) protein was used. MKK6 phosphorylates and thus activates p38 in response to extracellular signals such as TGFβ or other environmental stresses. The MKK6(glu) protein, which harbors glutamate mutations at amino acid residues serine 207 and threonine 211, is constitutively active and thus phosphorylates p38 irrespective of signal (Raingeaud et al., “MKK3- and MKK6-regulated gene expression is mediated by the p38 mitogen-activated protein kinase signal transduction pathway,” Mol. Cell. Biol. 16:1247-1255 (1996), which is hereby incorporated by reference in its entirety). Thus, if salinomycin is blocking the p38 signaling pathway, MKK6(glu) should overcome the effect of salinomycin. MKK6(glu) was first tested using the SBE4-TK-luc reporter plasmid. The luciferase reporter plasmid was introduced into human fibroblasts along with the MKK6(glu) plasmid or a control plasmid (pcDNA3-GFP). Cells were then treated with vehicle, TGFβ or TGFβ plus 250 nM salinomycin. After 24 hours, luciferase activity was measured (FIG. 6A). […] MKK6(glu) was further tested to assess whether it could attenuate the ability of salinomycin to inhibit p38 phosphorylation. Control or MKK6(glu) plasmids were introduced into human fibroblasts by electroporation and then cells were treated with TGFβ for 24 hours. Following treatment, cells were analyzed for flag-MKK6(glu) expression and phospho-p38 by Western blot (FIG. 6B). […] Samples were analyzed for expression of flag-MKK6(glu), αSMA, calponin and β-tubulin by Western blot (FIG. 6C).

CC[C@@H](C(=O)[C@@H](C)[C@@H](O)[C@H](C)[C@@H]1O[C@@H]([C@@H](CC)C(=O)O)CC[C@@H]1C)[C@H]1O[C@]2(C=C[C@@H](O)[C@]3(CC[C@@](C)([C@H]4CC[C@](O)(CC)[C@H](C)O4)O3)O2)[C@H](C)C[C@@H]1C [salinomycin]
reduction of TGFβ induced phospho-Smad2/3 levels ([1]; 250 nM, 5 hours): 2 fold | reduction of phospho-Smad2 levels compared to TGFβ alone ([1]; 250 nM, 5 hours): 80% | reduction of TGFβ induced phospho-Smad2/3 levels ([1]; 250 nM, 24 hours): 8-10 fold | reduction of TGFβ induced phospho-Smad2/3 levels ([1]; 250 nM, 24 hours, listed as Salinomycin): 5 fold | phospho-Smad2 levels ([1]; early time points (30 sec-1 hour), TGFβ): did not affect phospho-Smad2 levels | TGFβ-induced SBE-luciferase activity level ([2]; 1 uM): below baseline levels | inhibition of luciferase expression, dose responsiveness [2]: dose dependent decrease; also recorded: dose responsive decrease | inhibition of luciferase expression, dose responsiveness ([2]; listed as SNC): substantially inhibited luciferase expression | TGFβ-induced Smad-luc (luciferase) activity ([3]; constitutively active MKK6(glu) plasmid): attenuated the effect of salinomycin; also recorded: unable to block TGFβ-induced luciferase activity | TGFβ-induced Smad-luc (luciferase) activity ([3]; control (GFP) plasmid): completely blocked TGFβ-induced luciferase activity | TGFβ-induced Smad-luc (luciferase) activity ([3]; control (GFP) plasmid, listed as Salinomycin): blocked TGFβ induced Smad-luc activity
